Among the data in ChEMBL document CHEMBL1201862, “PubChem BioAssay data set” (2004) are IC50 and EC50 values, retold here.

Molecules are shown by their SMILES. Activity calls are given as the source filed them.

One test addresses Aspartyl aminopeptidase (Plasmodium falciparum 3D7, UniProt Q8I2J3). Put plainly: Counterscreen for inhibitors of M1 and M17 aminopeptidases: QFRET-based biochemical high throughput dose response assay for inhibitors of the Plasmodium falciparum M18 Aspartyl Aminopeptidase (PFM18AAP). [Related PubChem assays: 1619 (Screening assay (M17LAP inhibitors).), 1445 (Screening assay (M1AAP inhibitors).)]. For orientation: Counterscreens check selectivity or assay interference.

The target of the next test is T1, Aminopeptidase N (Plasmodium falciparum FcB1/Columbia, UniProt O96935).
T1 sequence (O96935 whole entry): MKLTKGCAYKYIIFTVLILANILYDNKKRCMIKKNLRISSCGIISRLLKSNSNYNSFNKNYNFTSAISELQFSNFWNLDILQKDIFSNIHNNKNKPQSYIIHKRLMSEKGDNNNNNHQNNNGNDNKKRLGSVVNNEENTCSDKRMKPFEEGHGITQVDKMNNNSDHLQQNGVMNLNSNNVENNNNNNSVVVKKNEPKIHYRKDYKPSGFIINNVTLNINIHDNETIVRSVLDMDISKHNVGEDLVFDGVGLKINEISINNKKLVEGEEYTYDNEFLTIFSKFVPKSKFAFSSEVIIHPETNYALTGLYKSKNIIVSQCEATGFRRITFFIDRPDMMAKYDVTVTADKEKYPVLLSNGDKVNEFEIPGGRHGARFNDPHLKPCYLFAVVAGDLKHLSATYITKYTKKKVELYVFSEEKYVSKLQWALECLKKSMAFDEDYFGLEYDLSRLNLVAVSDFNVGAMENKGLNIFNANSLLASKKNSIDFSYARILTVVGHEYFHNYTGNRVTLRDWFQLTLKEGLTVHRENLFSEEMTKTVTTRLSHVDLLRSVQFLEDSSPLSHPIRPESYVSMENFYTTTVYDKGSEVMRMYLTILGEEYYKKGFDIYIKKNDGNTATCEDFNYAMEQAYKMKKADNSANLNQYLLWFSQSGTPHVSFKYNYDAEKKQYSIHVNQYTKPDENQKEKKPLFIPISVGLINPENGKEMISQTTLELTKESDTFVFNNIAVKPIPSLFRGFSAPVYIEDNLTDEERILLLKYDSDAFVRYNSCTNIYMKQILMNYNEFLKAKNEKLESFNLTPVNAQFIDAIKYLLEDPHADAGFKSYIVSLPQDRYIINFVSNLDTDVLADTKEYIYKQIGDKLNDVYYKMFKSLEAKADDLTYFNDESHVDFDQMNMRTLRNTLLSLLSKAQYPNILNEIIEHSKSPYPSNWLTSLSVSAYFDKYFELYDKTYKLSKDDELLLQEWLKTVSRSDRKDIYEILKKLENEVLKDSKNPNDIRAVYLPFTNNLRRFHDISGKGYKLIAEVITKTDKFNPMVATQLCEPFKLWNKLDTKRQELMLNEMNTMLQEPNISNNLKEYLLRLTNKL
Put plainly: malaria alanyl aminopeptidase activity blockers – biochemical, fluorogenic H-Leu-NHMec substrate, 1536-well (AID 1445). Details: species or system Plasmodium falciparum 3D7, 3D7.

For test [1], the target named is Peroxisome proliferator-activated receptor gamma/Nuclear receptor coactivator 1 (Homo sapiens, UniProt P37231). Briefly: TR-FRET dose response biochemical High Throughput Screening assay for agonists of the steroid receptor coactivator 1 (SRC-1) recruitment by the peroxisome proliferator-activated receptor gamma (PPAR gamma): non-selective agonists. [Related pubchem assays (depositor defined):AID1300, AID1808, AID504735, AID631]. The format is protein assay. A general note: TR-FRET usually uses a lanthanide donor and a delayed reading to cut background.
Chain of Peroxisome proliferator-activated receptor gamma/Nuclear receptor coactivator 1 (P37231 whole entry): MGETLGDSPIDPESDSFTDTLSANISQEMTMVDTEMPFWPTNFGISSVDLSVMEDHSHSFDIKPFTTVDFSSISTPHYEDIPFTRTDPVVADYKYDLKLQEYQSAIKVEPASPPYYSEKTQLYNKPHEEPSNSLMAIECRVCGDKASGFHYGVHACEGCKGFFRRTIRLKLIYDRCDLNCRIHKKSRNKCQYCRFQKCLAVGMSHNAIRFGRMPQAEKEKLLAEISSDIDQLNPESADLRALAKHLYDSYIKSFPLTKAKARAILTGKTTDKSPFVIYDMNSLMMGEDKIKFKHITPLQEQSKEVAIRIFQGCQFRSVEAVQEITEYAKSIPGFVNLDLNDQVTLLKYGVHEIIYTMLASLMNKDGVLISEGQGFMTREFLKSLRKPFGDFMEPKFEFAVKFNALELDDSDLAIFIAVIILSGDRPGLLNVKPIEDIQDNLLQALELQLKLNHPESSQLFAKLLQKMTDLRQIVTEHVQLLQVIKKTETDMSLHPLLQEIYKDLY
Chain of Peroxisome proliferator-activated receptor gamma/Nuclear receptor coactivator 1 (Q15788 whole entry, further chain): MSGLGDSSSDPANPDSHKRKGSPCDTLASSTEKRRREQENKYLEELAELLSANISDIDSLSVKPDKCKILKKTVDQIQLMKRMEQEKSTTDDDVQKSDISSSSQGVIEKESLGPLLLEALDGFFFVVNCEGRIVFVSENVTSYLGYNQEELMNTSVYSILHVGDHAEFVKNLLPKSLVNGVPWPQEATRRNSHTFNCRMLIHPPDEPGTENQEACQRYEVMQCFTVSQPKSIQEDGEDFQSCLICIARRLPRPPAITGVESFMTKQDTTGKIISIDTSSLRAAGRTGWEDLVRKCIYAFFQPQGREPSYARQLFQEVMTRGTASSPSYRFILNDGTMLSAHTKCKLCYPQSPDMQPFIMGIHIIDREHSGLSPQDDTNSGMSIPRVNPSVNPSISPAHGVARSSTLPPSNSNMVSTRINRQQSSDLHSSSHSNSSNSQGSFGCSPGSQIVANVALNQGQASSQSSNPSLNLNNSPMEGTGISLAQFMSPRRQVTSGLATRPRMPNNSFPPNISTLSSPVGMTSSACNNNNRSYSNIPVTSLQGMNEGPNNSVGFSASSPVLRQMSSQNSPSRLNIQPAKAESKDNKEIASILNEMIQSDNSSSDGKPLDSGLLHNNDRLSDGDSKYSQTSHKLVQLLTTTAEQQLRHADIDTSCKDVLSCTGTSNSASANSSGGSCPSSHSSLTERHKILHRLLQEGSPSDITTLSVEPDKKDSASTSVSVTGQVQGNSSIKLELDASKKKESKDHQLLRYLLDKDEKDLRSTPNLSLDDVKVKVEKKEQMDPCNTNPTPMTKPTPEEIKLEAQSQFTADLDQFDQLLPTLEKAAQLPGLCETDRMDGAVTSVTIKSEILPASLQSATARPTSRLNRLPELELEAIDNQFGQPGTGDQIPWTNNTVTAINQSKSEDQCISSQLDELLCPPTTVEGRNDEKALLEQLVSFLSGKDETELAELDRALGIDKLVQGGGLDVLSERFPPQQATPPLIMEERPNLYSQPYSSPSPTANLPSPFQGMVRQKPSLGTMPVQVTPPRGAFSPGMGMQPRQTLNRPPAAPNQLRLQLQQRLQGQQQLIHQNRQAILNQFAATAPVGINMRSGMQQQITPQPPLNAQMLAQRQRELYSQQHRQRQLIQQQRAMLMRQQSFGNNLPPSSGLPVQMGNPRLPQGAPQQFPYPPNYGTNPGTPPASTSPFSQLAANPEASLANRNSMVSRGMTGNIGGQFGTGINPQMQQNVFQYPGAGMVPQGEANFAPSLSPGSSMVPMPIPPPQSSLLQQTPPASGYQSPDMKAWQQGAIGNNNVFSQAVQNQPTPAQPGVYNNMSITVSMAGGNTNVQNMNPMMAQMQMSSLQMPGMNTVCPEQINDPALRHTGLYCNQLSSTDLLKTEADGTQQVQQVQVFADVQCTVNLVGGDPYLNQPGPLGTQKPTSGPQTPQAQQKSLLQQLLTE

Test [2] has as its target Peroxisome proliferator-activated receptor gamma/Nuclear receptor coactivator 3 (Homo sapiens, UniProt P37231). Put plainly: TR-FRET dose response biochemical High Throughput Screening assay for agonists of the steroid receptor coactivator 3 (SRC-3) recruitment by the peroxisome proliferator-activated receptor gamma (PPAR gamma): non-selective agonists. [Related pubchem assays: 1301 (Confirmation screen.), 1048 (Primary screen.)]. The format is functional.

For the next test, the target named is Procathepsin L (Homo sapiens, UniProt P07711). Put plainly: CTSL1 protease inhibition – biochemical, QFRET, 1536-well, counter-screen for M1/M17 aminopeptidase inhibitor project, dose response (AID 2214).
Chain of Procathepsin L (P07711 whole entry): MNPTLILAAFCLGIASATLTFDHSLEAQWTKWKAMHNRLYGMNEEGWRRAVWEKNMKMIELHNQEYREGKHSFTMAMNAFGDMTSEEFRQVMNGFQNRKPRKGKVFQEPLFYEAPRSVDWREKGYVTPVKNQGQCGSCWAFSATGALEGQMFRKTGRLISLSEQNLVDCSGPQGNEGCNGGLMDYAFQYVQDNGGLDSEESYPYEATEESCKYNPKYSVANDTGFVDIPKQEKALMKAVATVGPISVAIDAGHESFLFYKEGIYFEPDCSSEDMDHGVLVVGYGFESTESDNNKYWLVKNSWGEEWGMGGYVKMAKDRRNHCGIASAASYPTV
For test [3], the target named is Peroxisome proliferator-activated receptor gamma/Nuclear receptor coactivator 2 (Homo sapiens, UniProt P37231). Put plainly: TR-FRET dose response biochemical High Throughput Screening assay for agonists of the steroid receptor coactivator 2 (SRC-2) recruitment by the peroxisome proliferator-activated receptor gamma (PPAR gamma): non-selective agonists. [Related pubchem assays: 1297, 1032 ]. The class given is functional.

The target of test [4] is T2, Corticotropin-releasing factor receptor 2/Corticotropin-releasing factor-binding protein (Homo sapiens, UniProt P24387+Q13324).
T2 sequence (Q13324 whole entry): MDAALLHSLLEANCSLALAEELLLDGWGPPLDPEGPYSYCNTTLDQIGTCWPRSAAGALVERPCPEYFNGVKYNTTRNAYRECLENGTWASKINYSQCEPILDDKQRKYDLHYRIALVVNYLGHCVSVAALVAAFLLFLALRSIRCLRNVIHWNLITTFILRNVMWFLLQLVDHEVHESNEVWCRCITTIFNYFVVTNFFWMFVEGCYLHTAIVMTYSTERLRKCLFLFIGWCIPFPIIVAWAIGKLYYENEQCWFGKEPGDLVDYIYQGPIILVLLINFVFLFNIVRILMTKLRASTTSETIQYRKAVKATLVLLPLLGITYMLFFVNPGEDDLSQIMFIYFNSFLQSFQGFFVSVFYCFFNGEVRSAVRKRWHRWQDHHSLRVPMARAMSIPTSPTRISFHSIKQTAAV
T2 sequence (P24387 whole entry): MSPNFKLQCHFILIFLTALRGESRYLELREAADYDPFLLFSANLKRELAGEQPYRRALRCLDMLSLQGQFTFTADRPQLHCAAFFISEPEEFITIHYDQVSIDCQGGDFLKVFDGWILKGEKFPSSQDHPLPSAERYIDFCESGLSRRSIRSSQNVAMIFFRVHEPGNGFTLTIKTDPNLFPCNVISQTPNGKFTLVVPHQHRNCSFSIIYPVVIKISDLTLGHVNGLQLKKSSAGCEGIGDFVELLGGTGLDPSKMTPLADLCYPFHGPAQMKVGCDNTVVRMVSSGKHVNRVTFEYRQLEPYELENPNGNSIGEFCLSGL
Briefly: Dose Response confirmation of uHTS hits for small molecule antagonists of the CRF-binding protein and CRF-R2 receptor complex. The class given is functional. The note with it: read-out: IC50_Mean.

In test [5] the target is T2, Corticotropin-releasing factor receptor 2/Corticotropin-releasing factor-binding protein. Briefly: activators of CRF receptor 2 with binding protein – uHTS hits, confirmation (AID 602473). Conditions: read-out: EC50_Mean. The class given is functional.

Chain of Peroxisome proliferator-activated receptor gamma/Nuclear receptor coactivator 3 (P37231 whole entry): as the sequence (P37231 whole entry) above
Chain of Peroxisome proliferator-activated receptor gamma/Nuclear receptor coactivator 3 (Q9Y6Q9 whole entry, further chain): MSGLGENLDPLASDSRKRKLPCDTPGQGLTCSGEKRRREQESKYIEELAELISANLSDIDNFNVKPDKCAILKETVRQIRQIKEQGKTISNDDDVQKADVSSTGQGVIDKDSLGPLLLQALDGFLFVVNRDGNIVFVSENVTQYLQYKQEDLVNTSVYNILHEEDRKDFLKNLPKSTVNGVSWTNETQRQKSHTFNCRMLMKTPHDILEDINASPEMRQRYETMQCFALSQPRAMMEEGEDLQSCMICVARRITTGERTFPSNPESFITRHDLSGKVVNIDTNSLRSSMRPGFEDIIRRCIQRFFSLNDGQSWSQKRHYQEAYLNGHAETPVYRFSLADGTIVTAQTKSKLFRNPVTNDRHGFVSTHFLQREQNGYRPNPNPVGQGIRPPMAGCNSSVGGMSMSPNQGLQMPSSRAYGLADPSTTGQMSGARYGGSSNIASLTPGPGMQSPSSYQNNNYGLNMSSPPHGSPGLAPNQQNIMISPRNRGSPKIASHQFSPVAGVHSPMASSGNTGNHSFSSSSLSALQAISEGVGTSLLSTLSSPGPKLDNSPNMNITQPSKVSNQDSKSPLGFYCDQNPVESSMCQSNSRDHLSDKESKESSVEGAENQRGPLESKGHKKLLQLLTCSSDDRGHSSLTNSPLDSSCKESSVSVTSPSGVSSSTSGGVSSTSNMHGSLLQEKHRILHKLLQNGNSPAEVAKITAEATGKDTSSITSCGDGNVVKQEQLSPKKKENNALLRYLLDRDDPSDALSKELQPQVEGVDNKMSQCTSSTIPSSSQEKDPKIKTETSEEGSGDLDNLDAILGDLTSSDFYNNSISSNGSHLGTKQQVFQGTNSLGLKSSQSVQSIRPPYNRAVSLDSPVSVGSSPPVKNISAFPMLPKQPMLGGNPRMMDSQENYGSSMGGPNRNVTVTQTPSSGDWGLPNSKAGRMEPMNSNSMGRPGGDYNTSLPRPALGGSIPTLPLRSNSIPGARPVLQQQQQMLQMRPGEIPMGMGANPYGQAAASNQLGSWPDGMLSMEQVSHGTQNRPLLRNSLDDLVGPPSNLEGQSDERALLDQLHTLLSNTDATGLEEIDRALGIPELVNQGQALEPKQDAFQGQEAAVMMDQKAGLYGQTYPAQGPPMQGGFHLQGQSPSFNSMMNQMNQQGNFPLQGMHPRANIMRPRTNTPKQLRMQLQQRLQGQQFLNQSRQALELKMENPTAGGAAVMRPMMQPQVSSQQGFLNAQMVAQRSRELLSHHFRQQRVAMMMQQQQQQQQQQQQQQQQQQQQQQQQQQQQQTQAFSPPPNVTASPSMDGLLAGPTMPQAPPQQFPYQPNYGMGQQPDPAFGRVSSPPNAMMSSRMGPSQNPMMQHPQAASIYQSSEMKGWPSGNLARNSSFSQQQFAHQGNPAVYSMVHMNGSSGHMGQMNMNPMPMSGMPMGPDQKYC
Chain of Aspartyl aminopeptidase (Q8I2J3 whole entry): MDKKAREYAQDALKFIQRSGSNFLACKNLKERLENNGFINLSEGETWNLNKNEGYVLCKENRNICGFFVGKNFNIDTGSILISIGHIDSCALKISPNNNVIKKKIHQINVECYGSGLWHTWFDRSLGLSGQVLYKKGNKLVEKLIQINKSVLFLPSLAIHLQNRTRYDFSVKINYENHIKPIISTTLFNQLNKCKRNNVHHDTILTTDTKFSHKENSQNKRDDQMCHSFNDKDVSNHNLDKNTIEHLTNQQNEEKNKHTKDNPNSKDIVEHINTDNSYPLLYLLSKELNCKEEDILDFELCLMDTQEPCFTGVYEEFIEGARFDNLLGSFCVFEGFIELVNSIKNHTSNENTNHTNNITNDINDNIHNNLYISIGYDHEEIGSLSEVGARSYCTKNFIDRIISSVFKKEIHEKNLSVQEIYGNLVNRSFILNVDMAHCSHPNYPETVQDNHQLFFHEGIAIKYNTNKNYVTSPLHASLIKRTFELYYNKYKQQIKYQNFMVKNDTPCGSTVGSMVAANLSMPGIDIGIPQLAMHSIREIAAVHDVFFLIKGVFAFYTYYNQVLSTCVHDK

On to `O=C1Nc2ccccc2/C1=C1/SC(=S)N(NC(=O)c2cccc(O)c2)C1=O`, for which the IC50 on Aspartyl aminopeptidase is 39.5 µM (not active); on Aminopeptidase N it was 4.08 µM (active); on Procathepsin L it was 31.8 µM (not active); in test [4] it was < 0.368 µM (active). The EC50 in test [1] is > 79.4 µM (inactive); in test [2] it was > 79.4 µM (not active); in test [3], 41 µM (not active); in test [5] it was > 53 µM (inactive).
